Test results taken from patent publication US6350765B1, “Fungicidal mixtures based on amide compounds and azoles” (priority 2000, dated 2002).
Like-named read-outs stand apart in the source and are kept apart here.

Tested on: Botrytis cinerea
Assay: Activity against Botrytis cinerea on bell peppers (fruit disks, protective spray)
Assay type: in vivo
Conditions: in Capsicum, 96 h, read-out: Efficacy in % of the untreated control
Procedure: The active ingredients, separately or together, are formulated as a 10% emulsion in a mixture of 63% by weight of cyclohexanone and 27% by weight of emulsifier, and diluted with water to the desired concentration.
Evaluation is carried out by determining the infected leaf areas in percent. These percentages are converted into efficacies. The efficacy (W) is calculated as follows using Abbot's formula: […]
α corresponds to the fungal infection of the treated plants in % and β corresponds to the fungal infection of the untreated (control) plants in % An efficacy of 0 means that the infection level of the treated plants corresponds to that of the untreated control plants; an efficacy of 100 means that the treated plants were not infected.
The expected efficacies of the mixtures of the active ingredients were determined using Colby's formula [R. S. Colby, Weeds 15, 20-22 (1967)] and compared with the observed efficacies.
Colby's formula: E=x+y−x·y/100
E expected efficacy, expressed in % of the untreated control, when using the mixture of the active ingredients A and B at the concentrations a and b x efficacy, expressed in % of the untreated control, when using active ingredient A at the concentration a y efficacy, expressed in % of the untreated control, when using active ingredient B at the concentration b Activity against Botrytis cinerea on bell peppers
Disks of green bell peppers were sprayed to runoff point with an aqueous preparation of active ingredient which had been prepared is from a stock solution comprising 10% of active ingredient, 63% of cyclohexanone and 27% of emulsifier. 2 hours after the spray coating had dried on, the fruit disks were inoculated with a spore suspension of Botrytis cinerea containing 1.7×10^6 spores per ml of a 2% strength Biomalz solution. The inoculated fruit disks were subsequently incubated in humid chambers at 18° C. for 4 days. The Botrytis infection on the diseased fruit disks was then evaluated visually.
The visually determined values for the percentage of diseased leaf areas were converted into efficacies as percentage of the untreated control. An efficacy of 0 means the same disease level as in the untreated control, an efficacy of 100 means 0% disease. The expected efficacies for active ingredient combinations were determined using Colby's formula (Colby, S. R. “Calculating synergistic and antagonistic responses of herbicide Combinations”, Weeds, 15, p. 20-22, 1967) and compared with the observed efficacies.

[1] = single active ingredient, 16 ppm in the spray liquor, green bell pepper disks, 4 days at 18° C.
[2] = single active ingredient, 31 ppm in the spray liquor, green bell pepper disks, 4 days at 18° C.

SMILES	pest or weed control at 16 ppm [1]	pest or weed control at 16 ppm	pest or weed control at 31 ppm	pest or weed control at 31 ppm [2]
CCCC1COC(Cn2cncn2)(c2ccc(Cl)cc2Cl)O1 (racemic) [Compound II.12, (±)-1-[2-(2,4-dichlorophenyl)-4-propyl-1,3-dioxolan-2-ylmethyl]-1H-1,2,4-triazole]	0%			
O=C(Nc1ccccc1-c1ccc(F)cc1)c1cccnc1Cl [Compound I.1]		10%	60%	
O=C(Nc1ccccc1-c1ccc(Cl)cc1)c1cccnc1Cl [Compound I.2]		80%		
CC(C1CC1)C(O)(Cn1cncn1)c1ccc(Cl)cc1 (stereo not shown) [Compound II.2, 2-(4-chlorophenyl)-3-cyclopropyl-1-(1H-1,2,4-triazol-1-yl)-butan-2-ol]	0%			10%
Fc1ccc(C2(Cn3cncn3)OC2c2ccccc2Cl)cc1 (stereo not shown) [Compound II.5, (Z)-2-(1H-1,2,4-triazol-1-ylmethyl)-2-(4-fluorophenyl)-3-(2-chlorophenyl)-oxirane]	0%			0%
C[Si](Cn1cncn1)(c1ccc(F)cc1)c1ccc(F)cc1 [Compound II.8, bis(4-fluorophenyl)(methyl)(1H-1,2,4-triazol-1-ylmethyl)-silane]	0%			0%
CCCN(CCOc1c(Cl)cc(Cl)cc1Cl)C(=O)n1ccnc1 [Compound II.11, N-propyl-N-[2-(2,4,^6-trichlorophenoxy)ethyl]imidazol-1-carboxamide]		0%	0%	
CCCCC(C#N)(Cn1cncn1)c1ccc(Cl)cc1 (stereo not shown) [Compound II.17, 2-p-chlorophenyl-2-(1H-1,2,4-triazol-1-ylmethyl)hexanenitrile]	0%			
